We go through one compound from patent US20090162305A1, “FORMULATIONS OF LOW OIL CONTENT COMPRISING […] DERIVATIVES” (SYMRISE GmbH & Co. KG, priority 2006, published 2009).

The assay can be described thus: ABTS assay, cell-free in vitro test of antioxidative capacity. It is filed as biochemical. The source says:
ABTS assay is a cell-free in vitro test for evaluation of antioxidative capacity (literature: Re R, Pellegrini N, Proteggente A, Pannala A, Yang M, Rice-Evans C. 1999. “Antioxidant activity applying an improved ABTS radical cation decolorization assay”; Free Radic. Biol. Med. 26: 1231-7). The assay uses the intrinsic colouration of a solution prepared with the cationic radical 2,2′-azinobis(3-ethylbenzothiazoline-6-sulfonic acid) (ABTS+) and potassium persulfate, which is decolourized by addition of antioxidants (reduction of the cationic radical). This decolouration can be measured photometrically at 734 nm. The test is carried out in 96-well microtitre plates. […] All the ABTS test results result from two independent experiments and are presented as means with the associated deviation from the mean.
In order to test whether the antioxidative activity of styrylresorcinol (formula 3; CARN 85-27-8; 4-(1-phenylethyl)-1,3-dihydroxybenzene) is adversely influenced by the presence of significant amounts of oily phase, in a further experiment the antioxidative capacity of two products comprising 30 percent by weight of 2-ethylhexyl isononanoate (INCI Ethylhexyl Isononanoate; product A) and, respectively, 5 percent by weight of 2-ethylhexyl isononanoate (INCI Ethylhexyl Isononanoate; product B) was determined with the aid of ABTS assay.

Structures are written as SMILES.

As for `CC(c1ccccc1)c1ccc(O)cc1O` (stereo not drawn) [Styrylresorcinol, 4-(1-phenylethyl)-1,3-dihydroxybenzene], the “reduction in the antioxidative capacity compared with the oil-free reference sample” value (5% of oily phase) amounted to 1.6%. In addition, for the setting “30% of oily phase, 0.01% styrylresorcinol”, the “deterioration in the antioxidative capacity compared with the oil-free reference sample” value is recorded as 13.5%. The “antioxidative capacity greater than that of the reference substance alpha-tocopherol, factor” value (ABTS, versus alpha-tocopherol) was about 2. In addition, the antioxidative capacity by setting is: (ethanolic solution containing 0.01% styrylresorcinol with 30% of oily phase (product A)) 79.4%; (mixture according to the invention comprising only 5% of oily phase (product B)) 91.35; (oil-free reference sample containing only 0.01% styrylresorcinol (product C)) 92.9%.
